{"source": "ChEMBL document CHEMBL2034943", "about": "“Potentiating Metronidazole Scaffold against Resistant Trichomonas: Design, Synthesis, Biology and 3D-QSAR Analysis” (ACS Med Chem Lett, 2012)"}
{"tested_on": "Trichomonas vaginalis", "test": "Antitrichomonas activity against metronidazole-susceptible Trichomonas vaginalis", "format": "functional", "units": {"MIC": "µM"}}
{"smiles": "Cc1ncc([N+](=O)[O-])n1CCSC(=S)N1CCC(OC(=O)CSC(=S)N2CCCC2)CC1", "MIC": 2.41}
{"smiles": "Cc1ncc([N+](=O)[O-])n1CCO", "note": "[METRONIDAZOLE]", "MIC": 11.7}
{"smiles": "Cc1ncc([N+](=O)[O-])n1CCSC(=S)N1CCC2(CC1)OCCO2", "MIC": 1.9}
{"smiles": "Cc1ncc([N+](=O)[O-])n1CCSC(=S)N1CCC(Cc2ccccc2)CC1", "MIC": 12.4}
{"smiles": "Cc1ncc([N+](=O)[O-])n1CCSC(=S)N1CCC(OC(=O)C(Cl)Cl)CC1", "MIC": 1.53}
{"smiles": "Cc1ncc([N+](=O)[O-])n1CCSC(=S)N1CCC(C#N)(c2ccccc2)CC1", "MIC": 1.68}
{"smiles": "Cc1ncc([N+](=O)[O-])n1CCSC(=S)N1CCC(OC(=O)CN2CCOCC2)CC1", "MIC": 1.36}
{"smiles": "CCOC(=O)C1CCN(C(=S)SCCn2c([N+](=O)[O-])cnc2C)CC1", "MIC": 3.24}
{"smiles": "Cc1ncc([N+](=O)[O-])n1CCSC(=S)N1CCC(OC(=O)CSC(=S)N2CCCCC2)CC1", "MIC": 2.35}
{"tested_on": "not listed separately", "test": "Toxicity against Lactobacillus jensenii ATCC 25258", "units": {"IC50": "µg/mL"}}
{"smiles": "CCCCCCCCCc1ccc(OCCOCCOCCOCCOCCOCCOCCOCCOCCO)cc1", "note": "[NONOXYNOL 9]", "IC50": 33}
{"smiles": "Cc1ncc([N+](=O)[O-])n1CCSC(=S)N1CCC(OC(=O)CSC(=S)N2CCCC2)CC1", "IC50": "> 1000"}
{"smiles": "Cc1ncc([N+](=O)[O-])n1CCO", "note": "[METRONIDAZOLE]", "IC50": "> 1000"}
{"smiles": "Cc1ncc([N+](=O)[O-])n1CCSC(=S)N1CCC2(CC1)OCCO2", "IC50": "> 1000"}
{"smiles": "Cc1ncc([N+](=O)[O-])n1CCSC(=S)N1CCC(Cc2ccccc2)CC1", "IC50": "> 1000"}
{"smiles": "Cc1ncc([N+](=O)[O-])n1CCSC(=S)N1CCC(OC(=O)C(Cl)Cl)CC1", "IC50": 740}
{"smiles": "Cc1ncc([N+](=O)[O-])n1CCSC(=S)N1CCC(C#N)(c2ccccc2)CC1", "IC50": "> 1000"}
{"smiles": "Cc1ncc([N+](=O)[O-])n1CCSC(=S)N1CCC(OC(=O)CN2CCOCC2)CC1", "IC50": "> 1000"}
{"smiles": "CCOC(=O)C1CCN(C(=S)SCCn2c([N+](=O)[O-])cnc2C)CC1", "IC50": "> 1000"}
{"smiles": "Cc1ncc([N+](=O)[O-])n1CCSC(=S)N1CCC(OC(=O)CSC(=S)N2CCCCC2)CC1", "IC50": "> 1000"}
{"tested_on": "Trichomonas vaginalis", "test": "Antitrichomonas activity against metronidazole-resistant Trichomonas vaginalis ATCC 50143", "format": "functional", "units": {"MIC": "µM"}}
{"smiles": "Cc1ncc([N+](=O)[O-])n1CCSC(=S)N1CCC(OC(=O)CSC(=S)N2CCCC2)CC1", "MIC": 96.7}
{"smiles": "Cc1ncc([N+](=O)[O-])n1CCO", "note": "[METRONIDAZOLE]", "MIC": 292}
{"smiles": "Cc1ncc([N+](=O)[O-])n1CCSC(=S)N1CCC2(CC1)OCCO2", "MIC": 26.9}
{"smiles": "Cc1ncc([N+](=O)[O-])n1CCSC(=S)N1CCC(Cc2ccccc2)CC1", "MIC": 49.5}
{"smiles": "Cc1ncc([N+](=O)[O-])n1CCSC(=S)N1CCC(OC(=O)C(Cl)Cl)CC1", "MIC": 56.7}
{"smiles": "Cc1ncc([N+](=O)[O-])n1CCSC(=S)N1CCC(C#N)(c2ccccc2)CC1", "MIC": 24.1}
{"smiles": "Cc1ncc([N+](=O)[O-])n1CCSC(=S)N1CCC(OC(=O)CN2CCOCC2)CC1", "MIC": 54.7}
{"smiles": "CCOC(=O)C1CCN(C(=S)SCCn2c([N+](=O)[O-])cnc2C)CC1", "MIC": 64.8}
{"smiles": "Cc1ncc([N+](=O)[O-])n1CCSC(=S)N1CCC(OC(=O)CSC(=S)N2CCCCC2)CC1", "MIC": 37.7}
{"tested_on": "Spermatozoa", "test": "Spermicidal activity against human spermatozoa assessed as immobilization measured for 60 seconds", "format": "functional", "parameters": "concentration or dose not given beside the values", "units": {"Activity": "%"}}
{"smiles": "CCCCCCCCCc1ccc(OCCOCCOCCOCCOCCOCCOCCOCCOCCO)cc1", "note": "[NONOXYNOL 9]", "Activity": 100}
{"smiles": "Cc1ncc([N+](=O)[O-])n1CCSC(=S)N1CCC(OC(=O)CSC(=S)N2CCCC2)CC1", "Activity": "<100"}
{"smiles": "Cc1ncc([N+](=O)[O-])n1CCO", "note": "[METRONIDAZOLE]", "Activity": "<100"}
{"smiles": "Cc1ncc([N+](=O)[O-])n1CCSC(=S)N1CCC2(CC1)OCCO2", "Activity": "<100"}
{"smiles": "Cc1ncc([N+](=O)[O-])n1CCSC(=S)N1CCC(Cc2ccccc2)CC1", "Activity": 100}
{"smiles": "Cc1ncc([N+](=O)[O-])n1CCSC(=S)N1CCC(OC(=O)C(Cl)Cl)CC1", "Activity": 100}
{"smiles": "Cc1ncc([N+](=O)[O-])n1CCSC(=S)N1CCC(C#N)(c2ccccc2)CC1", "Activity": "<100"}
{"smiles": "Cc1ncc([N+](=O)[O-])n1CCSC(=S)N1CCC(OC(=O)CN2CCOCC2)CC1", "Activity": "<100"}
{"smiles": "CCOC(=O)C1CCN(C(=S)SCCn2c([N+](=O)[O-])cnc2C)CC1", "Activity": 100}
{"smiles": "Cc1ncc([N+](=O)[O-])n1CCSC(=S)N1CCC(OC(=O)CSC(=S)N2CCCCC2)CC1", "Activity": "<100"}
{"tested_on": "HeLa", "test": "Cytotoxicity against human HeLa cells", "format": "cell-based", "units": {"IC50": "µg/mL"}}
{"smiles": "CCCCCCCCCc1ccc(OCCOCCOCCOCCOCCOCCOCCOCCOCCO)cc1", "note": "[NONOXYNOL 9]", "IC50": 33}
{"smiles": "Cc1ncc([N+](=O)[O-])n1CCSC(=S)N1CCC(OC(=O)CSC(=S)N2CCCC2)CC1", "IC50": "> 1000"}
{"smiles": "Cc1ncc([N+](=O)[O-])n1CCO", "note": "[METRONIDAZOLE]", "IC50": "> 1000"}
{"smiles": "Cc1ncc([N+](=O)[O-])n1CCSC(=S)N1CCC2(CC1)OCCO2", "IC50": "> 1000"}
{"smiles": "Cc1ncc([N+](=O)[O-])n1CCSC(=S)N1CCC(Cc2ccccc2)CC1", "IC50": "> 1000"}
{"smiles": "Cc1ncc([N+](=O)[O-])n1CCSC(=S)N1CCC(OC(=O)C(Cl)Cl)CC1", "IC50": "> 1000"}
{"smiles": "Cc1ncc([N+](=O)[O-])n1CCSC(=S)N1CCC(C#N)(c2ccccc2)CC1", "IC50": "> 1000"}
{"smiles": "Cc1ncc([N+](=O)[O-])n1CCSC(=S)N1CCC(OC(=O)CN2CCOCC2)CC1", "IC50": 840}
{"smiles": "CCOC(=O)C1CCN(C(=S)SCCn2c([N+](=O)[O-])cnc2C)CC1", "IC50": 510}
{"smiles": "Cc1ncc([N+](=O)[O-])n1CCSC(=S)N1CCC(OC(=O)CSC(=S)N2CCCCC2)CC1", "IC50": 980}
